Test [1] deals with GST-Fyn-SH3-SH2. Briefly: NECEEM, GST-Fyn-SH3-SH2:Fluor-Fyn peptide complex. As to conditions: 2 μM GST-Fyn-SH3-SH2, 100 nM Fluor-Fyn peptide, pH 8.5. In kind it is binding.
The test system of test [2] is GST-Fyn-SH3-SH2. Briefly: High-speed CE competition / binding, GST-Fyn-SH3-SH2 with Fluor-Fyn peptide.
For another test, the system named is Fyn-SH3-SH2. As to conditions: 100 V/cm for Ld of 30 cm; 100 and 200 V/cm for Ld of 40 cm; t1/2 not measured.

With “fluorescein-EEEEPQpYEEIPIYL [Fluor-Fyn peptide]”, in the test on GST-Fyn-SH3-SH2 [1], the “complexes observed (NECEEM)” value is “two incompletely resolved peaks”. Also, in the test with GST-Fyn-SH3-SH2 [2] (500 nM protein, 200 nM Fluor-Fyn peptide), the “number of complexes detected (high-speed CE), GST-Fyn-SH2-SH3” value is given as “two distinct complexes were detected”. The “complex 1-to-complex 2 ratio with increasing peptide concentration” value in the test with GST-Fyn-SH3-SH2 [2] (Fluor-Fyn peptide 50 nM to 700 nM, protein 500 nM) was “decreases with increasing peptide concentration”. In addition, the “protein concentration dependency of complex formation: low range” value in the test on GST-Fyn-SH3-SH2 [2] (GST-Fyn-SH3-SH2 0.1 μM to 0.5 μM, Fluor-Fyn peptide 200 nM) is reported as “complex 2 increases”. Also, the “complex expected to dissociate over the course of separation” value in the test on GST-Fyn-SH3-SH2 [2] (for t1/2 of 22 s and separation time of 3.8 s) is reported as 2%. In addition, the “dissociation of the complex at low electric field (NECEEM)” value in the test on Fyn-SH3-SH2 was “complete dissociation of the complex”.
